The results in this text go back to article PMC8879074, “A Novel Small Molecular Prostaglandin Receptor EP4 Antagonist, L001, Suppresses Pancreatic Cancer Metastasis” (Molecules, 2022).

SMILES strings stand for the structures.

The test system of series [1] is YAP/TEAD reporter in BxPC-3 cells. Nature of the series: TEAD-driven luciferase reporter assay, BxPC-3. Type of series: cell-based, human. To be noted: 16 h. The procedure: (§1) CHO-K1 cells or pancreatic cancer cell lines were transfected with a cAMP responsive element (CRE) reporter or TEAD reporter using lipofectamine 2000 according to the manufacturer’s manual. […] Then, cells were lysed and luciferase activities were determined using Dual-Luciferase Reporter Assay Kit (Promega, Madison, WI, USA).
In general terms: A reporter such as luciferase makes a cellular process visible.

Series [2] concerns YAP protein in BxPC-3 cells. The series can be described thus: Western blotting of YAP protein, BxPC-3. In kind it is cell-based, human. To be noted: 10 μM PGE2. As to the method:
(§2) Cells were lysed in RIPA lysis buffer with phosphatase and protease inhibitors (Calbiochem, San Diego, CA, USA) and denatured by heating at 100 °C for 10 min. Proteins were separated on 10% bis-tris polyacrylamide gels, transferred to nitrocellulose filter membranes (Millipore, Burlington, NJ, USA), and blocked with 5% BSA (Sangon Biotech, Shanghai, China). The membranes were incubated with the indicated primary antibodies overnight and subsequently probed with indicated secondary antibodies. Images of the blots were taken and analyzed by Odyssey imaging system (Li-COR Biosciences, Lincoln, NE, USA). The primary antibodies were listed as follows: Human-YAP (1:10,000 dilution, CY5381, abways); Mouse-YAP (1:1000 dilution, ab205270, abcam); EP4 (1:500 dilution, 101775, Cayman Chemical); GAPDH (1:10,000 dilution, Ab181602, abcam).
In general terms: A western blot detects proteins with antibodies after separation by electrophoresis.

In series [3] the test system is Pan02 cells. Nature of the series: Wound healing assay, Pan02. The note with it: various concentrations of PGE2. Type of series: cell-based, murine. The procedure: (§3) The wound healing assay was performed according to a standard protocol as described before. Briefly, Pan02 and BxPC-3 cells were grown as a confluent monolayer in 12-well plates (Corning, Corning, NY, USA) overnight and starved with serum-free medium for 6 h. The monolayer cells were disrupted with a P100 micropipette tip (JET BIOFIL, Guangzhou, China) and rinsed with PBS to remove detached cells. Medium containing different concentrations of compounds was added subsequently. After 24 h, treated cells were stained with 2 μM calcein-AM (Yeasen, Shanghai, China) for 20 min and washed with PBS. Photos were taken of the area in the scraped zone of each dish at 100× magnification by using an inverted fluorescent microscope (OLYMPUS, Tokyo, Japan).

The subject of series [4] is BxPC-3 cells. The series can be described thus: Wound healing assay, BxPC-3. Type of series: cell-based, human. The note with it: various concentrations of PGE2. The procedure: as §3
The test system of series [5] is YAP protein in Pan02 cells. Nature of the series: Western blotting of YAP protein, Pan02. In kind it is cell-based, murine. To be noted: 10 μM PGE2. As to the method:
as §2

Series [6] concerns YAP, CYR61, CTGF, Vimentin, Snail, E-cadherin mRNA in BxPC-3 cells. Nature of the series: Real-time qPCR of YAP, YAP target genes and EMT markers, BxPC-3. In kind it is cell-based, human. The note with it: 10 μM PGE2. As to the method: (§4) Total RNA was extracted from cells using TRIzol reagent. The cDNA was synthesized by RT-PCR kit (Vazyme Biotech, Nanjing, China). The band intensity was determined by the gel image analysis system (Bio-Rad, Hercules, CA, USA). SYBR Green-based qPCR (Yeason, Shanghai, China) was conducted subsequently. Relative mRNA levels of target genes were normalized with β-actin. The sequences of primers are listed in Supplementary Table S1. The raw data are listed in Supplementary Table S2.
(Real-time PCR tracks product formation cycle by cycle.)

Series [7] relates to YAP, CYR61 and CTGF mRNA in Pan02 cells. The series can be described thus: Real-time qPCR of YAP and YAP target genes, Pan02. In kind it is cell-based, murine. To be noted: 10 μM PGE2. The procedure: as §4
Series [8] deals with YAP/TEAD reporter in Pan02 cells. Nature of the series: TEAD-driven luciferase reporter assay, Pan02. In kind it is cell-based, murine. The note with it: 16 h. As to the method:
as §1

Series [9] relates to BxPC-3 cells. Nature of the series: Transwell migration assay, BxPC-3. Type of series: cell-based, human. To be noted: 0.1 μM PGE2; 16 h. As to the method:
(§5) The transwell assay was conducted as described previously, using 8 μm pore transwell inserts (Corning, NY, USA). Cells were suspended in serum-free DMEM and seeded into upper chambers at appropriate density. The bottom chamber was filled with DMEM supplemented with 10% fetal bovine serum and indicated concentrations of PGE2. The compounds were added in both upper and bottom chambers. […] Migrated cells were counted and quantified using image J.

The subject of series [10] is Pan02 cells. Nature of the series: Transwell migration assay, Pan02. In kind it is cell-based, murine. The note with it: 0.1 μM PGE2; 16 h. As to the method: as §5
Series [11] relates to Pan02-Luc hepatic metastasis. Nature of the series: Pan02-Luc liver metastasis model with bioluminescent imaging. To be noted: L001 or E7046 75 mg/kg p.o. daily, gemcitabine 25 mg/kg i.p. twice a week; for reduction of Pan02 cell liver metastases (bioluminescence of separated livers) / reduction in median luminescence signal compared with vehicle control group: n = 6; for reduction in median luminescence signal compared with vehicle control group: day 28; for median survival: n = 9, control 34 days. In kind it is in vivo, C57BL/6 mice. The procedure:
(§6) Male C57/BL6 mice (6–8 weeks) were obtained from the National Rodent Laboratory Animal Resources (NRLAR, Shanghai, China). All mice were housed according to Institutional Animal Care and Use Committee guidelines and under a protocol approved by East China Normal University Ethics Committee with respect to animal care and welfare assurance. The bioluminescent liver metastasis mouse model was established as described previously. In brief, 2 × 10^6 Pan02/luc cells suspended in 50 μL of PBS were injected into mice spleen. […] Tumor metastasis was monitored by using an in vivo imaging system following intraperitoneal injection with D-Luciferin (2 mg per mouse; Promega). Bioluminescence intensity was recorded every seven days by a Xenogen IVIS-200 Optical in vivo imaging system (PerkinElmer; Waltham, MA, USA) for up to 4 weeks. The mouse body weight was measured every other day. Survival curve analysis was performed using GraphPad Prism 7.
Mouse liver tissues were harvested, fixed, paraffin embedded, and sectioned (8 μm). The tissues were permeabilized with 0.25% TritonX-100 at room temperature for 15 min, blocked with 1% FBS in PBS, and followed by incubation in primary antibodies at 4 °C overnight: rabbit anti-YAP (1:50 dilution, ab205270, abcam). The sections were then washed with PBS, incubated with anti-rabbit secondary antibody for 2 h and dyed with DAPI (10 μg/mL in PBS) for 5 min at room temperature. Slides were mounted using DPX Mountant (Electron Microscopy Sciences) and images were obtained by inverted fluorescence microscope (Olympus, Tokyo, Japan).

Series [12] can be described thus: Body weight of mice in Pan02-Luc metastasis model. In kind it is in vivo, C57BL/6 mice. To be noted: L001 75 mg/kg p.o. daily; gemcitabine 25 mg/kg i.p. twice a week; n = 6. As to the method: as §6

As to `CCCCC[C@H](O)/C=C/[C@H]1[C@H](O)CC(=O)[C@@H]1C/C=C\CCCC(=O)O` [PGE2, Prostaglandin E2, reference compound], the “max luminescence fold increase of TEAD-driven luciferase activity” value turned out to be 1.56 fold in [1] and 1.87 fold in series [8]. Further, the “level of intracellular YAP protein over time” value in [2] and in [5] was “significantly increased” each time. For the same compound, the “cell motility (wound closure) vs vehicle” value in series [3] and in series [4] was “significantly promoted the motility” each time. Moreover, the “expression of YAP target genes CYR61 and CTGF over time” value in series [6] and in series [7] was “elevated” in each case. For the same compound, the “increase in migrated BxPC-3 cells” value in series [9] worked out at 2.5 fold. Further, in [10], the “increase in migrated Pan02 cells” value is 1.2 fold.

On to `Nc1ccn([C@@H]2O[C@H](CO)[C@@H](O)C2(F)F)c(=O)n1` [gemcitabine], for which, in series [11], the “H&E imaging of liver sections” value is listed as “remarkably reduced metastatic clusters”, the “reduction of Pan02 cell liver metastases (bioluminescence of separated livers)” value came to 93.2%, the “reduction in median luminescence signal compared with vehicle control group” value is 91.79% and the median survival worked out at 46 days. Moreover, in series [12], the body weight loss result is “barely found”.

Regarding `C[C@H](NC(=O)c1c(C(F)F)nn(C)c1Oc1cccc(C(F)(F)F)c1)c1ccc(C(=O)O)cc1` [E7046], in [11], the “H&E imaging of liver sections” value was “remarkably reduced metastatic clusters”, the “reduction of Pan02 cell liver metastases (bioluminescence of separated livers)” value came out at 76.42%, the “reduction in median luminescence signal compared with vehicle control group” value stood at 69.13% and the median survival is given as 35 days.
